# Species on record: Rattus norvegicus
# Assay: DrugMatrix - Regimen: Daily Repeat
# Format: toxicity, organism-based, Sprague-Dawley
# Parameters: regimen Daily Repeat, gender Male, age 6-8 weeks
# Details: in vivo, po, 17 mg/kg, route oral GAVAGE, dose level High, vehicle .5 % CMC; for ABSOLUTE BASOPHIL / ABSOLUTE EOSINOPHIL / ABSOLUTE LYMPHOCYTE / ABSOLUTE MONOCYTE / ABSOLUTE SEGMENTED NEUTROPHIL / BASOPHIL / EOSINOPHIL / ERYTHROCYTE COUNT / HEMATOCRIT / HEMOGLOBIN / LEUKOCYTE COUNT / LYMPHOCYTE / MEAN CORPUSCULAR HEMOGLOBIN / MEAN CORPUSCULAR HEMOGLOBIN CONCENTRATION / MEAN CORPUSCULAR VOLUME / MONOCYTE / NEUTROPHIL / NUCLEATED RED BLOOD CELLS / PLATELET COUNT: tissue Blood
# [1] = 72 h, tissue Plasma, time 3 day
# [2] = 120 h, tissue Plasma, time 5 day
smiles,measurement,setting,value
COc1ccc(C(=O)Nc2c(Cl)cncc2Cl)cc1OC1CCCC1,ABSOLUTE BASOPHIL,"72 h, time 3 day",0 CELLS/uL
same,ABSOLUTE EOSINOPHIL,"72 h, time 3 day",110.33 CELLS/uL
same,ABSOLUTE LYMPHOCYTE,"72 h, time 3 day",17172 CELLS/uL
same,ABSOLUTE MONOCYTE,"72 h, time 3 day",305.67 CELLS/uL
same,ABSOLUTE SEGMENTED NEUTROPHIL,"72 h, time 3 day",3612 CELLS/uL
same,BASOPHIL,"72 h, time 3 day",0%
same,EOSINOPHIL,"72 h, time 3 day",0.67%
same,ERYTHROCYTE COUNT,"72 h, time 3 day",5.87 x10E6/uL
same,HEMATOCRIT,"72 h, time 3 day",36.6%
same,HEMOGLOBIN,"72 h, time 3 day",13.33 G/DL
same,LEUKOCYTE COUNT,"72 h, time 3 day",21.2 x10E3/uL
same,LYMPHOCYTE,"72 h, time 3 day",82.67%
same,MEAN CORPUSCULAR HEMOGLOBIN,"72 h, time 3 day",22.73 pg
same,MEAN CORPUSCULAR HEMOGLOBIN CONCENTRATION,"72 h, time 3 day",36.47 G/DL
same,MEAN CORPUSCULAR VOLUME,"72 h, time 3 day",62.43 fL
same,MONOCYTE,"72 h, time 3 day",1.33%
same,NEUTROPHIL,"72 h, time 3 day",15.33%
same,NUCLEATED RED BLOOD CELLS,"72 h, time 3 day",0 /100WBC
same,PLATELET COUNT,"72 h, time 3 day",1117.33 x10E3/uL
same,ALANINE AMINOTRANSFERASE,[1],51.67 u/L
same,ALBUMIN,[1],3.77 G/DL
same,ALKALINE PHOSPHATASE,[1],361.67 u/L
same,ASPARTATE AMINOTRANSFERASE,[1],68.67 u/L
same,BLOOD UREA NITROGEN,[1],17.33 mg/dL
same,CARBON DIOXIDE,[1],31.33 mmol/L
same,CHLORIDE,[1],103 MEQ/L
same,CHOLESTEROL,[1],74.67 mg/dL
same,CREATININE,[1],0.18 mg/dL
same,GLUCOSE,[1],188.33 mg/dL
same,LACTATE DEHYDROGENASE,[1],139 u/L
same,LIPASE,[1],9.33 u/L
same,PHOSPHORUS,[1],12.77 mg/dL
same,POTASSIUM,[1],6.6 MEQ/L
same,SODIUM,[1],149.03 MEQ/L
same,TOTAL BILIRUBIN,[1],0.13 mg/dL
same,TOTAL PROTEIN,[1],6.1 G/DL
same,URIC ACID,[1],2.07 mg/dL
same,ABSOLUTE BASOPHIL,"120 h, time 5 day",0 CELLS/uL
same,ABSOLUTE EOSINOPHIL,"120 h, time 5 day",84.67 CELLS/uL
same,ABSOLUTE LYMPHOCYTE,"120 h, time 5 day",11281 CELLS/uL
same,ABSOLUTE MONOCYTE,"120 h, time 5 day",472.33 CELLS/uL
same,ABSOLUTE SEGMENTED NEUTROPHIL,"120 h, time 5 day",1195.33 CELLS/uL
same,BASOPHIL,"120 h, time 5 day",0%
same,EOSINOPHIL,"120 h, time 5 day",0.67%
same,ERYTHROCYTE COUNT,"120 h, time 5 day",6 x10E6/uL
same,HEMATOCRIT,"120 h, time 5 day",36.73%
same,HEMOGLOBIN,"120 h, time 5 day",13.33 G/DL
same,LEUKOCYTE COUNT,"120 h, time 5 day",13.03 x10E3/uL
same,LYMPHOCYTE,"120 h, time 5 day",86.33%
same,MEAN CORPUSCULAR HEMOGLOBIN,"120 h, time 5 day",22.23 pg
same,MEAN CORPUSCULAR HEMOGLOBIN CONCENTRATION,"120 h, time 5 day",36.3 G/DL
same,MEAN CORPUSCULAR VOLUME,"120 h, time 5 day",61.23 fL
same,MONOCYTE,"120 h, time 5 day",3.67%
same,NEUTROPHIL,"120 h, time 5 day",9.33%
same,NUCLEATED RED BLOOD CELLS,"120 h, time 5 day",0 /100WBC
same,PLATELET COUNT,"120 h, time 5 day",1070.67 x10E3/uL
same,ALANINE AMINOTRANSFERASE,[2],64 u/L
same,ALBUMIN,[2],4.1 G/DL
same,ALKALINE PHOSPHATASE,[2],400 u/L
same,ASPARTATE AMINOTRANSFERASE,[2],136.33 u/L
same,BLOOD UREA NITROGEN,[2],13 mg/dL
same,CARBON DIOXIDE,[2],34.33 mmol/L
same,CHLORIDE,[2],101 MEQ/L
same,CHOLESTEROL,[2],65.33 mg/dL
same,CREATININE,[2],0.19 mg/dL
same,GLUCOSE,[2],166.33 mg/dL
same,LACTATE DEHYDROGENASE,[2],276.33 u/L
same,LIPASE,[2],8.33 u/L
same,PHOSPHORUS,[2],11.3 mg/dL
same,POTASSIUM,[2],6.12 MEQ/L
same,SODIUM,[2],149.43 MEQ/L
same,TOTAL BILIRUBIN,[2],0.2 mg/dL
same,TOTAL PROTEIN,[2],6.63 G/DL
